In ChEMBL document CHEMBL3352438, “Synthesis, characterization, molecular docking and anti-tubercular activity of Plumbagin-Isoniazid Analog and its β-cyclodextrin conjugate” (2014):
Values after ≈ are worked out from the molar mass of the structure shown.

Experiments:
Type in all cases: functional
Conditions in all cases: ATCC 27294, 120 h
[1] = system: Mycobacterium tuberculosis; experiment: Antitubercular activity against Mycobacterium tuberculosis ATCC 27294 in high iron condition after 5 days by Alamar blue assay
[2] = system: Mycobacterium tuberculosis; experiment: Antitubercular activity against Mycobacterium tuberculosis ATCC 27294 in low iron condition after 5 days by Alamar blue assay
[3] = system: Mycobacterium tuberculosis; experiment: Antitubercular activity against Mycobacterium tuberculosis ATCC 27294 in 7H9 medium after 5 days by Alamar blue assay

Row | Compound | MIC [1] | MIC [2] | MIC [3]
1 | CC1=C/C(=N\NC(=O)c2ccncc2)c2c(O)cccc2C1=O | 0.5 µg/mL (≈ 1.63 µM) | 2 µg/mL (≈ 6.51 µM) | 8 µg/mL (≈ 26 µM)
2 | NNC(=O)c1ccncc1 [ISONIAZID] | 0.125 µg/mL (≈ 0.911 µM) | 32 µg/mL (≈ 233 µM) | 0.25 µg/mL (≈ 1.82 µM)
3 | CC1=CC(=O)c2c(O)cccc2C1=O [PLUMBAGIN] | 4 µg/mL (≈ 21.3 µM) | 128 µg/mL (≈ 680 µM) | 32 µg/mL (≈ 170 µM)
